Tested on: mouse embryos
Test: Storage of mouse embryos at 4° C., survival assessed by hatching in subsequent culture
Assay type: cell-based
Conditions: for ranking of Class I and Class II solutes for hatching of stored embryos: storage 1-3 days at 4° C., Class I:Class II 1.6:1, 1.75 mM CaSO4
Procedure: The efficacy of the solutions of the present invention in the preservation of mouse embryos was tested as described below. As embryos consist of rapidly dividing cells, they are difficult to arrest, and therefore provide a sensitive test of storage solutions. Embryos also have the advantage that survival in storage can be assessed after 1-5 days by their ability to hatch in subsequent culture.
Viable mouse embryos were stored for periods of 1, 2 or 3 days at 4° C. in either PBS or an aqueous solution of either raffinose, trehalose, sucrose or lactose (Class I solutes), together with a solute selected from the group consisting of trimethyl amine oxide (TMAO), betaine, taurine, sarcosine, glucose, mannose, fructose, ribose, galactose, sorbitol, mannitol, inositol and taurine (Class II solutes), at a ratio of Class I solute to Class II solute of 1.6:1. Each Class I/Class II solution also contained calcium sulfate at a concentration of 1.75 mM. The solutions also contained 0.1-1% bovine serum albumin (BSA) and 25 mg/L of kanamycin sulfate. All reagents were obtained from Sigma Chemical Company (St. Louis, Mo.). Survival of the embryos was assessed by subsequent culture in Dulbecco's Modified Eagles Medium (DMEM, Life Technologies, Grand Island, N.Y.) and was expressed both as the number of live embryos present after storage and the number of embryos which hatched after 48 hours in culture at 37° C.
Mouse embryos were incubated with either sodium butyrate or a Class II solute at either, room temperature, 30° C. or 4° C. prior to storage in Solution 70/30 for up to five days at 4° C. […] Sodium butyrate replaced sodium chloride at the same concentration in PBS. FIGS. 8A, B and C show the percentage of mouse embryos hatching after 1, 2 and 3 days, respectively, in storage following pretreatment with sodium butyrate at concentrations of 5, 10 or 15 mM for either 10, 20 or 30 minutes. FIGS. 8D, E and F show the percentage of mouse embryos alive after 1, 2 and 3 days, respectively, in storage following pretreatment with sodium butyrate at concentrations of 5, 10 or 15 mM for either 10, 20 or 30 minutes. Pretreatment with sodium butyrate allowed up to 80% of embryos to hatch following three days of storage in Solution 70/30. After 5 days of storage in Solution 70/30 following pretreatment with higher concentrations of sodium butyrate, up to 70% of embryos hatched compared to 2% with no pretreatment (see FIG. 9). Embryos stored in PBS without pretreatment lasted no longer than 3 days. […] FIGS. 10A, B, C and D show the survival of mouse embryos after up to four days of storage in Solution 70/30 at 4° C. following pretreatment with 25 mM sodium butyrate for 5, 10 or 15 minutes at room temperature.

Structure (SMILES) | ranking of Class I and Class II solutes for hatching of stored embryos | embryos hatched (5 days of storage in Solution 70/30 after pretreatment with higher concentrations of sodium butyrate) | embryos hatching (three days of storage in Solution 70/30 at 4° C. after pretreatment with sodium butyrate)
OC[C@H]1O[C@H](OC[C@H]2O[C@H](O[C@]3(CO)O[C@H](CO)[C@@H](O)[C@@H]3O)[C@H](O)[C@@H](O)[C@@H]2O)[C@H](O)[C@@H](O)[C@H]1O [Raffinose, raffinose] | best Class I solute | – | –
C[N+](C)(C)[O-] [TMAO, trimethyl amine oxide] | best Class II solute | – | –
C[N+](C)(C)CC(=O)O [betaine] | second best | – | –
CCCC(=O)[O-].[Na+] [sodium butyrate] | – | up to 70% | up to 80%
OC[C@H]1O[C@H](O[C@H]2O[C@H](CO)[C@@H](O)[C@H](O)[C@H]2O)[C@H](O)[C@@H](O)[C@@H]1O [trehalose] | second best | – | –

From patent publication US6743575B2, “Compositions and methods for the preservation of living tissues” (Biostore New Zealand Ltd., priority 1996, dated 2004)
